The record followed here is patent US20220220135A1 (BAR-ILAN UNIVERSITY, priority 2019, published 2022).

Each structure is given as a SMILES string. Where two headings read alike, the source gives them in different places.

In data set [1] the target is T1, NPP1 (Homo sapiens, UniProt P22413).
T1 sequence (P22413 1-925): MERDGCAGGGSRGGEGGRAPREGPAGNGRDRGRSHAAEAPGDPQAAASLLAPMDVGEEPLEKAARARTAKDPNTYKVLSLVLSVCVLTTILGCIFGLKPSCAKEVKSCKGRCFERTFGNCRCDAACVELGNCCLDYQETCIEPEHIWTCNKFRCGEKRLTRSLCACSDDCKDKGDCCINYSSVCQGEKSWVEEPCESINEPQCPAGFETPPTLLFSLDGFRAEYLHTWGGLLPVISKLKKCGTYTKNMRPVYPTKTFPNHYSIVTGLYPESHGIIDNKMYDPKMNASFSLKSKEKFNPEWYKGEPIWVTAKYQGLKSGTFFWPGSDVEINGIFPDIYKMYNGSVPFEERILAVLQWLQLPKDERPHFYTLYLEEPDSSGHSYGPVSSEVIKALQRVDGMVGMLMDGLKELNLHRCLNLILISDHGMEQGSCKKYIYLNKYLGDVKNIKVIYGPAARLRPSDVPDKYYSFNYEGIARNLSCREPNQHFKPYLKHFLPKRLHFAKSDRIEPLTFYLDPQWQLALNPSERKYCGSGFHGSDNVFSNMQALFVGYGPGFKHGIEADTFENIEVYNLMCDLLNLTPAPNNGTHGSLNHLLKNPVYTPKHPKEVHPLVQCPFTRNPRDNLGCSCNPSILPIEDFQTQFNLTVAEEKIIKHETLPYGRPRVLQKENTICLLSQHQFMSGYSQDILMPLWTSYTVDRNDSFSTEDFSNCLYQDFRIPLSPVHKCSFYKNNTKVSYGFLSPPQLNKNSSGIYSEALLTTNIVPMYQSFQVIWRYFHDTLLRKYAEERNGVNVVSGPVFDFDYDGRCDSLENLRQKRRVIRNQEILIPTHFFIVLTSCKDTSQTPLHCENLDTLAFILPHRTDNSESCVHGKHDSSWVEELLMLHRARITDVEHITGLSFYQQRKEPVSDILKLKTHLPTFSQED
Put plainly: Inhibition of human NPP1, pNP-TMP as substrate (analogues 9-12). In kind it is biochemical. On the procedure: (§1) FIG. 2: Inhibition of NTPDases and NPPs by analogues 9-12 using as substrates ATP (100 μM) for NTPDase1,2,3,8 and pNP-TMP (100 μM) for NPP1,3 (Panel A); and ATP (100 μM) was used as the substrate for NPP1 (Panel B);
Analogues 9-12 were evaluated for their ability to inhibit human NPP1.
(§2) At least 2 independent experiments were performed. In panel A, the activity with 100 μM ATP was set as 100%, which was 287±31, 395±67, 278±22, 119±26 nmol of Pi·min−1·mg of protein−1 for human NTPDase1, -2, -3 and -8, respectively, and the activity with 100 μM pNP-TMP was set as 100% which was 67±5, 21±1 nmol of p-nitrophenol·min−1·mg of protein−1 for human NPP1 and NPP3, respectively. In panel B, the activity with 100 μM ATP was set as 100% which was 34±7 nmol of PPi·min−1·mg of protein−1 for NPP1.

Data set [2] addresses T2, NTPDase2 (Homo sapiens, UniProt Q9Y5L3).
T2 sequence (Q9Y5L3 1-495): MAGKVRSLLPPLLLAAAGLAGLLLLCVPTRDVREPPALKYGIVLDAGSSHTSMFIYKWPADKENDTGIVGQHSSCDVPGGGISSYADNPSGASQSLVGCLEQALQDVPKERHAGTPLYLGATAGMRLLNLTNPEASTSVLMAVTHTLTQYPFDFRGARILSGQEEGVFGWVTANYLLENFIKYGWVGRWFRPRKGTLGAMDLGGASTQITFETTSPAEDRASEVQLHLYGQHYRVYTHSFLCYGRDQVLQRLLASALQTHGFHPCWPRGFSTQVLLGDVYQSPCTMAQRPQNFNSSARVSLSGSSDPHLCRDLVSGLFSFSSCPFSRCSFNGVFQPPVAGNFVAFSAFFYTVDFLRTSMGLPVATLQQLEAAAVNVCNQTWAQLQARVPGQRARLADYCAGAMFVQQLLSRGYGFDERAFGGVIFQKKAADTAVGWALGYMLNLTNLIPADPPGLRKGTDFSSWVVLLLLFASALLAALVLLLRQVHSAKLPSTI
Put plainly: Inhibition of ATPase activity of human NTPDase2. Conditions: analogue at 100 μM; ATP 100 μM as substrate. Format: biochemical. On the procedure:
as §1, §2

In data set [3] the target is T3, NTPDase3 (Homo sapiens, UniProt O75355).
T3 sequence (O75355 1-529): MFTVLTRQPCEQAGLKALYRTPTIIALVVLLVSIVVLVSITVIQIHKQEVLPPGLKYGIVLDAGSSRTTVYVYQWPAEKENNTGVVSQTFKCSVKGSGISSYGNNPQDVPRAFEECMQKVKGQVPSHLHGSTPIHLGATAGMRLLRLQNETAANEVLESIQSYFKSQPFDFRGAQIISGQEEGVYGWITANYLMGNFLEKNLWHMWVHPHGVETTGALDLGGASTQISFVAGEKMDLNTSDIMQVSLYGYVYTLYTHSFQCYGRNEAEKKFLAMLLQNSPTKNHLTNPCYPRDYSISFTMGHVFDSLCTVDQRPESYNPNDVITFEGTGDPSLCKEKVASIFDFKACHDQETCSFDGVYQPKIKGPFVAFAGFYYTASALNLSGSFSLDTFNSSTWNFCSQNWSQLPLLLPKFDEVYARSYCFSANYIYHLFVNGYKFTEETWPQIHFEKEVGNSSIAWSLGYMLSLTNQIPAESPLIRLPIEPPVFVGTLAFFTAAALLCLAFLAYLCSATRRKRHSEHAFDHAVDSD
Put plainly: Inhibition of ATPase activity of human NTPDase3. In kind it is biochemical. Conditions: analogue at 100 μM; ATP 100 μM as substrate. On the procedure: as §1, §2

Data set [4] can be described thus: Stability to air-oxidation by 31P-NMR. The following applies: aqueous solution, constant air flow, RT, 3 weeks. In kind it is physicochemical. From the text:
To evaluate the chemical stability of uridine-5′-Pα,α-dithiophosphate analogues, we measured by 31P-NMR the time-dependent percentage of the analogues remaining under basic and acidic conditions, and due to air-oxidation.
An aqueous solution of 10 was subjected to a constant air flow.

[5] abbreviates: analogue at 100 μM, pNP-TMP 100 μM as substrate.
[6] abbreviates: pNP-TMP as a substrate, mean±SEM.
The mark [7] stands for this setting: pNP-TMP as a substrate, mean±SEM, read-out: Ki (μM), NPP1 inhibition.

In the case of `O=c1ccn([C@@H]2O[C@H](COP(=S)(S)OP(=O)(O)OP(=O)(O)OP(=S)(S)OC[C@H]3O[C@@H](n4ccc(=O)[nH]c4=O)[C@H](O)[C@@H]3O)[C@@H](O)[C@H]2O)c(=O)[nH]1` (some centres unmarked) [Analogue 12], the “inhibition of human NPP1” value in data set [1] (setting [5]) is listed as “effectively blocked”. For the same compound, the half-inhibitory concentration (IC50) (usually the concentration that gives 50% inhibition) in data set [1] (setting [6]) worked out at 0.125 ± 0.004 µM. For the same compound, the Ki (as a rule, a measure of affinity in units of concentration, obtained from inhibition or displacement) in data set [1] (pNP-TMP as the substrate, read-out: Ki, NPP1) is 0.027 µM. Also, the “inhibition of human NTPDase2” value in data set [2] is “selective to NPP1”. In data set [3], the inhibition (in general, the relative decrease from the control value, in per cent) at 100 µM turned out to be 24%. Moreover, the stability to air-oxidation entry in data set [4] is recorded as “completely resistant”.
Compound `O=c1ccn([C@@H]2O[C@H](COP(=S)(S)OP(=O)(O)OP(=O)(O)O)[C@@H](O)[C@H]2O)c(=O)[nH]1` (some centres unmarked) [Analogue 10] had an inhibition at 100 µM in data set [1] (setting [5]) of 100%. In addition, the IC50 in data set [1] (setting [6]) came to 1.2 ± 0.1 µM. The Ki in data set [1] (setting [7]) amounted to 0.24 ± 0.02 µM. Besides, the “inhibition of human NTPDase2” value in data set [2] is on record as “no inhibition”. For the same compound, in data set [3], the “inhibition of human NTPDase3” value was “no inhibition”. In addition, the stability to air-oxidation result in data set [4] is on record as “no new signals”.
In data set [1] (setting [6]), `O=c1ccn([C@@H]2O[C@H](COP(=S)(S)OP(=O)(O)CP(=O)(O)O)[C@@H](O)[C@H]2O)c(=O)[nH]1` (some centres unmarked) [Analogue 11] registered an IC50 of 4.3 ± 0.1 µM. In data set [1] (setting [7]), the Ki came to 1.11 ± 0.19 µM. For the same compound, the “inhibition of human NTPDase2” value in data set [2] was “negligible effects”. Further, the “inhibition of human NTPDase3” value in data set [3] is on record as “negligible effects”. The stability to air-oxidation entry in data set [4] is “complete stability”.
